Test results as given in patent US20210254000A1, “PROCESS FOR PRODUCING A T CELL COMPOSITION” (Juno Therapeutics, Inc., priority 2017, published 2021).

Columns and labels:
[1] = test system: engineered CD8+ and CD4+ T cells; test: T cell expansion of anti-CD19 CAR-transduced CD4+ and CD8+ T cells incubated with mTOR kinase inhibitor; type: cell-based; settings: human
Procedure: Separate compositions of CD4+ and CD8+ cells were isolated from human leukapheresis samples by immunoaffinity-based enrichment and cryofrozen. The CD4+ and CD8+ cells of the compositions were subsequently thawed and activated by separately culturing the cells under stimulating conditions in the presence of anti-CD3/anti-CD28 magnetic beads and recombinant IL-2, IL-7 and/or IL-15 for approximately 20 hours. Cells were then transduced with a viral vector encoding an anti-CD19 chimeric antigen receptor (CAR). After transduction, the CD4+ and CD8+ cells were separately incubated in the presence of an mTOR kinase inhibitor, either Compound 155, Compound 63, or Compound 246, at various concentrations. For controls, cells were incubated with media only, DMSO vehicle, or with 200 nM PI-103. Incubation was carried out at 37° C. for approximately 8 days post-thaw with one media change, at which point the compounds were re-added to the culture media at the same concentration.
The percent of CD8+ and CD4+ T cells at the end of the process as compared to the amount of cells seeded for culture following the transduction is shown in FIG. 2. The cutoff for selecting a tolerated dose was set at 70% of the mean values of the media and DMSO controls.

[2] = test system: CD8+ CAR-T cells; test: Glycolytic metabolism (ECAR, Seahorse) of CD8+ CAR-T cells expanded with inhibitor; type: cell-based, human; settings: CD8+ CAR-T cells expanded with 1 μM Compound 63; 3 donors
Procedure: (§1) Separate compositions of CD4+ and CD8+ cells were isolated from three human donors, activated and transduced with a viral vector encoding an anti-CD19 CAR substantially as described in Example 2. After transduction, the CD4+ and CD8+ T cells derived from each donor were separately incubated for 8 days in the presence of a mTOR kinase inhibitor to expand T cells substantially as described in Example 2, except in the presence of 200 nM PI-103, 1 μM Compound 63, or with DMSO vehicle or media only controls. CD4+ and CD8+ T cells from each donor were then separately harvested, formulated, and cryofrozen. […] Functional activities of the generated anti-CD19 CAR-T cell compositions were assessed.
Changes in cellular glycolytic metabolism in response to T cell receptor (TCR) stimulation were measured in CD8+ CAR-T cells from the generated anti-CD19 CAR-T cell composition prior to combining with CD4+ T cells. Glycolytic metabolism was assessed by measuring the extracellular acidification rate (ECAR) in CD8+ CAR-T cells in real time with an extracellular flux bioanalyzer (Seahorse Bioanalyzer, Agilent Technologies). […] Area under the curve (AUC) for the ECAR rates (mpH/min) from 0 to 76 minutes of the assay and maximal ECAR glycolytic burst ratio relative to media controls (n=3 donors) were determined.

[3] = test system: anti-CD19 CAR-T cells; test: Serial stimulation assay with irradiated K562-CD19 target cells; type: cell-based, human; settings: four rounds of restimulation with K562-CD19 cells; relative to media only
Procedure: as §1
The ability of cells to expand ex vivo following repeated stimulations in some aspects can indicate capacity of CAR-T cells to persist (e.g., following initial activation) and/or is indicative of function in vivo (Zhao et al. (2015) Cancer Cell, 28:415-28). […] Every 3-4 days, T cells were harvested, counted, and restimulated with new target cells using the same culture conditions after resetting cell number to initial seeding density for each round. […] The population doublings (FIG. 7A) and area under the curves (AUC) as a function of population doublings over time relative to AUC of cells expanded with media only (FIG. 7B) were determined.

SMILES: CC(C)c1ccccc1-n1c(=O)[nH]c2c(C(N)=O)nc(-c3cccc(O)c3)nc21 [Compound 63, 2-(3-Hydroxyphenyl)-9-(2-isopropylphenyl)-8-oxo-8,9-dihydro-7H-purine-6-carboxamide]
- highest tolerated dose resulting in similar CD8 and CD4 T cell expansion as vehicle control [1]: 1 µM
- glycolytic burst upon TCR stimulation (ECAR AUC, ECAR ratio) relative to media control [2]: trend towards enhanced glycolytic burst
- mean AUC of population doublings compared to T cells expanded with PI-103 or DMSO vehicle [3]: larger mean AUC
